≈ marks a conversion by molar mass, not a printed value.

A short description of one series: Aqueous solubility assay. It counts as physicochemical. To be noted: aqueous buffer, thermodynamic from solid; pH 6.5 phosphate buffer, room temperature, 18-24 h. How it is done: Approximately 0.75 mg of accurately weighed test compound was added to 1 mL of a pH 6.5 phosphate buffer (50 mM Potassium Phosphate Buffer) to make solutions with a nominal targeted concentration of 1 mM. The vial was then rotated on an orbital shaker at room temperature for 18-24 h. After equilibration time had been met, the test solution was centrifuge filtered through a 0.45 um membrane (Millipore Ultrafree Centrifugal Filters, Durapore PVDF 0.45 um). The filtrate was then analyzed by an Agilent HP1100 HPLC/UV at multiple wavelengths using diode array detection (e.g. 210, 230, 254 and 280 nm) against a previously generated calibration curve to determine compound concentration.
Find below in Table 9 data for compared compounds (See WO 2011/127106 A1).

The subject of the next series is male C57BL/6J mice. Briefly: Mouse oral glucose tolerance test. It counts as in vivo. Particulars: for Glucose Lowering: at the minimally efficacious dose, plasma glucose AUC in oGTT; for Minimally efficacious Dose: oGTT in C57BL/6J mice. How it is done: Mouse Oral Glucose Tolerance Test
Twenty four (24) male C57BL/6J mice (8-10 weeks old, average weight 28 g) were randomized into 4 groups (1 mouse/cage) of 6 mice per group based on fed plasma glucose and body weight. Prior to initiating the study, mice were fasted overnight and the next morning they were weighed and placed in the experimental lab. After 30 min in the environment, the mice were bled via tail tip at −60 min and immediately given their first oral administration of vehicle (40% PEG400, 10% Cremophor EL, 50% water) or compound solutions (5 ml/kg). At time 0 the mice were bled and given 50% glucose (2 g/kg) to initiate the oral glucose tolerance test (oGTT). The mice were bled 30, 60 and 120 min after the glucose load. Blood samples were drawn into potassium EDTA, placed on ice during the study and subsequently centrifuged for 10 min at 3000 rpm at 4° C. Plasma samples were diluted 11-fold for glucose analysis in the COBAS MIRA® System (Roche Diagnostics). Area under the curve was calculated from the plasma glucose time course data using the trapezoid rule with fasting plasma glucose as the baseline (GraphPad Prism Software). The statistical significance of the changes in the glucose AUCs resulting from the different treatments was determined by one-way ANOVA followed by Dunnett's test using the vehicle group as the control (JMP software, release 5.1.2).
Find below in Table 7 data for compared compounds (See WO 2009/012275 A1).

A short description of the next series: in vitro. Particulars: human, microsomes, pH 7.4.
Series [1] can be described thus: Metabolic stability in liver microsomes test. To be noted: human, pH 7.4. On the technique in general: Microsomes from liver hold many membrane-bound enzymes, among them those of drug oxidation.
Method: (§1) Metabolic Stability in Liver Microsomes Test
(§2) The test compound was received as a 3.5 mM stock solution in 100 percent dimethyl sulfoxide (“DMSO”, Sigma Aldritch). The compound solution was diluted to create a 50 μM acetonitrile (“ACN”, Sigma Aldritch) solution containing 1.4% DMSO, which is then used as a 100-fold stock for incubation with microsomes. The test compound, β-nicotinamide adenine dinucleotide phosphate (“NADPH”, AppliChem Inc.) and liver microsome solutions are combined for incubation in three steps:
(§3) 1) 450 μl of liver microsome suspension, protein concentration of 1.1 mg/ml in 100 mM sodium (+)/phosphate (“NaPi”, pH 7.4, Sigma Aldritch) buffer, 5 mM magnesium chloride (“MgCl2, Sigma Aldritch) buffer, is pre-warmed at 37° C.;
(§4) 2) 5 μl of 50 μM test compound (98.6% ACN, 1.4% DMSO) is added to the same tube and pre-incubated at 37° C. for 5 minutes; and
(§5) 3) The reaction is initiated by the addition of 50 μl of pre-warmed 10 mM NADPH solution in 100 mM NaPi, pH 7.4.
(§6) Reaction components are mixed well and then 65 μl are immediately transferred into 130 μl quench/stop solution (zero-time point, T0). The reactions are incubated at 37° C. for 5, 10, 15, 30 and 45 minutes and at each time-point a 65 μl aliquot is transferred into 130 μl of quench solution. ACN containing Internal Standard (100 ng/ml), is used as the quench solution to terminate metabolic reactions. The quenched mixtures are centrifuged at 1500 rpm (˜500×g) in an Allegra X-12 centrifuge, SX4750 rotor (Beckman Coulter Inc., Fullerton, Calif.) for fifteen minutes to pellet denatured microsomes. A volume of 90 μl of supernatant extract, containing the mixture of parent compound and its metabolites, is then transferred to a separate 96-well plate for LC/MS-MS analysis to determine the percent of parent compound that is remaining in the mixture. Peak integration is performed on all samples using the Hepatic Clearance Calculator of QuickCalc by Gubbs, Inc. The percent remaining calculation is performed by comparing the LC-MS/MS peak areas from the samples at each time point to those from the T0 samples for each compound. T1/2 values are calculated from linear regression of the LN (% Remaining) over time, and the slope of that regression (Kel) is used to calculate T1/2, using the following equation: T1/2=−0.693/Kel.

Method for in vitro: as §1, §2, §3, §4, §5, §6

Usually solubility stands for the concentration that dissolves in the medium under given conditions. Read a high solubility as much dissolved substance. For orientation: half-life means the time needed for the level to fall by half in the phase considered. A lower half-life goes with rapid decline. `Cc1nc(-n2cc(Cl)c(OC3CCN(c4ncc(Cl)cn4)CC3)cc2=O)ccc1N1CCC(O)C1=O` (centres unmarked) [Example 1, 5-chloro-4-((1-(5-chloropyrimidin-2-yl)piperidin-4-yl)oxy)-5′-(3-hydroxy-2-oxopyrrolidin-1-yl)-6′-methyl-2H-[1,2′-bipyridin]-2-one]: the solubility in the series “Aqueous solubility assay” turned out to be 4 µg/mL (≈ 7.53 µM). Moreover, in the series on male C57BL/6J mice, the “Glucose Lowering” value is −36% and the “Minimally efficacious Dose” value is 0.03 mg/kg. Further, the half-life at 0.5 µM in the series “in vitro” stood at 1.57 h.
On to `CCCc1cnc(N2CCC(Oc3cc(=O)n(-c4ccc(N5CCC(O)C5=O)c(C)n4)cc3Cl)CC2)nc1` (centres unmarked) [Example 2, 5-chloro-5′-(3-hydroxy-2-oxopyrrolidin-1-yl)-6′-methyl-4-((1-(5-propylpyrimidin-2-yl)piperidin-4-yl)oxy)-2H-[1,2′-bipyridin]-2-one], for which the half-life at 0.5 µM in series [1] was 2 h. The solubility in “Aqueous solubility assay” amounted to 1 µg/mL (≈ 1.86 µM). Moreover, in the series on male C57BL/6J mice, the “Glucose Lowering” value is recorded as −19% and the “Minimally efficacious Dose” value came to 0.03 mg/kg.
On to `CCCc1cnc(N2CCC(Oc3ccn(-c4ccc(N5CCC(O)C5=O)c(C)n4)c(=O)c3)CC2)nc1` (centres unmarked) [Example 5, 5′-(3-hydroxy-2-oxopyrrolidin-1-yl)-6′-methyl-4-((1-(5-propylpyrimidin-2-yl)piperidin-4-yl)oxy)-2H-[1,2′-bipyridin]-2-one], for which the solubility in “Aqueous solubility assay” was found to be 3 µg/mL (≈ 5.95 µM). In addition, in the series with male C57BL/6J mice, the “Glucose Lowering” value was −21% and the “Minimally efficacious Dose” value was determined as 0.1 mg/kg. The half-life at 0.5 µM in “in vitro” is 1.27 h.
With `Cc1nc(-n2ccc(OC3CCN(c4ncc(Cl)cn4)CC3)cc2=O)ccc1N1CCC(O)C1=O` (centres unmarked) [Example 6, 4-((1-(5-chloropyrimidin-2-yl)piperidin-4-yl)oxy)-5′-(3-hydroxy-2-oxopyrrolidin-1-yl)-6′-methyl-2H-[1,2′-bipyridin]-2-one], the solubility in the series “Aqueous solubility assay” amounted to 7 µg/mL (≈ 14.1 µM). The half-life at 0.5 µM in the series “in vitro” came to 1.68 h.

The record behind these values is patent publication US9174965B2, “Pyrimidinylpiperidinyloxypyridone analogues as GPR119 modulators” (BRISTOL-MYERS SQUIBB COMPANY, priority 2012, dated 2015).
